Source: the NIST ThermoML archive (doi:10.1016/j.jct.2015.04.029)

Key:
[1] = wn = mass fraction of the nth substance listed; conditions: for surface tension liquid-gas: Maximal bubble pressure; for mass density: 100 kPa, Liquid, Vibrating tube method
[2] = refractive index (Na D-line) (dimensionless); wn = mass fraction of the nth substance listed; conditions: 100 kPa, Liquid, Standard Abbe refractometry

CCCCn1cc[n+](C)c1.N[C@@H](CO)C(=O)[O-] [1-butyl-3-methylimidazolium L-serinate] + O
Conditions | mass density [kg/m3] | refractive index | surface tension liquid-gas [mN/m]
[1], 298.15 K, w2 = 0.00489 | 1156.16 | – | –
[1], 298.15 K, w2 = 0.00632 | 1156.21 | – | –
[1], 298.15 K, w2 = 0.00706 | – | – | 46.4
[1], 298.15 K, w2 = 0.00783 | 1156.25 | – | –
[1], 298.15 K, w2 = 0.00859 | – | – | 46.7
[1], 298.15 K, w2 = 0.00933 | 1156.29 | – | –
[1], 298.15 K, w2 = 0.01019 | – | – | 46.9
[1], 298.15 K, w2 = 0.01094 | 1156.32 | – | –
[1], 298.15 K, w2 = 0.01171 | – | – | 47.1
[1], 298.15 K, w2 = 0.01331 | – | – | 47.3
[1], 303.15 K, w2 = 0.00489 | 1152.97 | – | –
[1], 303.15 K, w2 = 0.00632 | 1153.01 | – | –
[1], 303.15 K, w2 = 0.00706 | – | – | 46.2
[1], 303.15 K, w2 = 0.00783 | 1153.06 | – | –
[1], 303.15 K, w2 = 0.00859 | – | – | 46.4
[1], 303.15 K, w2 = 0.00933 | 1153.1 | – | –
[1], 303.15 K, w2 = 0.01019 | – | – | 46.7
[1], 303.15 K, w2 = 0.01094 | 1153.15 | – | –
[1], 303.15 K, w2 = 0.01171 | – | – | 46.9
[1], 303.15 K, w2 = 0.01331 | – | – | 47.1
[1], 308.15 K, w2 = 0.00489 | 1149.77 | – | –
[1], 308.15 K, w2 = 0.00632 | 1149.82 | – | –
[1], 308.15 K, w2 = 0.00706 | – | – | 46
[1], 308.15 K, w2 = 0.00783 | 1149.86 | – | –
[1], 308.15 K, w2 = 0.00859 | – | – | 46.2
[1], 308.15 K, w2 = 0.00933 | 1149.91 | – | –
[1], 308.15 K, w2 = 0.01019 | – | – | 46.4
[1], 308.15 K, w2 = 0.01094 | 1149.97 | – | –
[1], 308.15 K, w2 = 0.01171 | – | – | 46.6
[1], 308.15 K, w2 = 0.01331 | – | – | 46.9
[1], 313.15 K, w2 = 0.00489 | 1146.61 | – | –
[1], 313.15 K, w2 = 0.00632 | 1146.67 | – | –
[1], 313.15 K, w2 = 0.00706 | – | – | 45.7
[1], 313.15 K, w2 = 0.00783 | 1146.72 | – | –
[1], 313.15 K, w2 = 0.00859 | – | – | 45.9
[1], 313.15 K, w2 = 0.00933 | 1146.76 | – | –
[1], 313.15 K, w2 = 0.01019 | – | – | 46.1
[1], 313.15 K, w2 = 0.01094 | 1146.82 | – | –
[1], 313.15 K, w2 = 0.01171 | – | – | 46.3
[1], 313.15 K, w2 = 0.01331 | – | – | 46.6
[1], 318.15 K, w2 = 0.00489 | 1143.46 | – | –
[1], 318.15 K, w2 = 0.00632 | 1143.52 | – | –
[1], 318.15 K, w2 = 0.00706 | – | – | 45.4
[1], 318.15 K, w2 = 0.00783 | 1143.56 | – | –
[1], 318.15 K, w2 = 0.00859 | – | – | 45.6
[1], 318.15 K, w2 = 0.00933 | 1143.61 | – | –
[1], 318.15 K, w2 = 0.01019 | – | – | 45.8
[1], 318.15 K, w2 = 0.01094 | 1143.65 | – | –
[1], 318.15 K, w2 = 0.01171 | – | – | 46
[1], 318.15 K, w2 = 0.01331 | – | – | 46.3
[1], 323.15 K, w2 = 0.00489 | 1140.24 | – | –
[1], 323.15 K, w2 = 0.00632 | 1140.3 | – | –
[1], 323.15 K, w2 = 0.00706 | – | – | 45.2
[1], 323.15 K, w2 = 0.00783 | 1140.34 | – | –
[1], 323.15 K, w2 = 0.00859 | – | – | 45.4
[1], 323.15 K, w2 = 0.00933 | 1140.39 | – | –
[1], 323.15 K, w2 = 0.01019 | – | – | 45.6
[1], 323.15 K, w2 = 0.01094 | 1140.45 | – | –
[1], 323.15 K, w2 = 0.01171 | – | – | 45.8
[1], 323.15 K, w2 = 0.01331 | – | – | 46
[1], 328.15 K, w2 = 0.00489 | 1137.09 | – | –
[1], 328.15 K, w2 = 0.00632 | 1137.16 | – | –
[1], 328.15 K, w2 = 0.00706 | – | – | 44.9
[1], 328.15 K, w2 = 0.00783 | 1137.21 | – | –
[1], 328.15 K, w2 = 0.00859 | – | – | 45.1
[1], 328.15 K, w2 = 0.00933 | 1137.27 | – | –
[1], 328.15 K, w2 = 0.01019 | – | – | 45.3
[1], 328.15 K, w2 = 0.01094 | 1137.32 | – | –
[1], 328.15 K, w2 = 0.01171 | – | – | 45.5
[1], 328.15 K, w2 = 0.01331 | – | – | 45.7
[1], 333.15 K, w2 = 0.00489 | 1133.97 | – | –
[1], 333.15 K, w2 = 0.00632 | 1134.03 | – | –
[1], 333.15 K, w2 = 0.00706 | – | – | 44.7
[1], 333.15 K, w2 = 0.00783 | 1134.08 | – | –
[1], 333.15 K, w2 = 0.00859 | – | – | 44.9
[1], 333.15 K, w2 = 0.00933 | 1134.13 | – | –
[1], 333.15 K, w2 = 0.01019 | – | – | 45.1
[1], 333.15 K, w2 = 0.01094 | 1134.18 | – | –
[1], 333.15 K, w2 = 0.01171 | – | – | 45.3
[1], 333.15 K, w2 = 0.01331 | – | – | 45.5
[1], 338.15 K, w2 = 0.00489 | 1130.83 | – | –
[1], 338.15 K, w2 = 0.00632 | 1130.9 | – | –
[1], 338.15 K, w2 = 0.00706 | – | – | 44.5
[1], 338.15 K, w2 = 0.00783 | 1130.95 | – | –
[1], 338.15 K, w2 = 0.00859 | – | – | 44.7
[1], 338.15 K, w2 = 0.00933 | 1131.01 | – | –
[1], 338.15 K, w2 = 0.01019 | – | – | 44.9
[1], 338.15 K, w2 = 0.01094 | 1131.07 | – | –
[1], 338.15 K, w2 = 0.01171 | – | – | 45.1
[1], 338.15 K, w2 = 0.01331 | – | – | 45.4
[2], 298.15 K, w2 = 0.00594 | – | 1.5125 | –
[2], 298.15 K, w2 = 0.00746 | – | 1.5122 | –
[2], 298.15 K, w2 = 0.00898 | – | 1.5117 | –
[2], 298.15 K, w2 = 0.0105 | – | 1.5112 | –
[2], 298.15 K, w2 = 0.01211 | – | 1.5108 | –
[2], 303.15 K, w2 = 0.00594 | – | 1.5117 | –
[2], 303.15 K, w2 = 0.00746 | – | 1.5113 | –
[2], 303.15 K, w2 = 0.00898 | – | 1.5109 | –
[2], 303.15 K, w2 = 0.0105 | – | 1.5104 | –
[2], 303.15 K, w2 = 0.01211 | – | 1.5099 | –
[2], 308.15 K, w2 = 0.00594 | – | 1.5109 | –
[2], 308.15 K, w2 = 0.00746 | – | 1.5104 | –
[2], 308.15 K, w2 = 0.00898 | – | 1.5101 | –
[2], 308.15 K, w2 = 0.0105 | – | 1.5096 | –
[2], 308.15 K, w2 = 0.01211 | – | 1.5091 | –
[2], 313.15 K, w2 = 0.00594 | – | 1.5099 | –
[2], 313.15 K, w2 = 0.00746 | – | 1.5094 | –
[2], 313.15 K, w2 = 0.00898 | – | 1.5091 | –
[2], 313.15 K, w2 = 0.0105 | – | 1.5087 | –
[2], 313.15 K, w2 = 0.01211 | – | 1.5083 | –
[2], 318.15 K, w2 = 0.00594 | – | 1.5089 | –
[2], 318.15 K, w2 = 0.00746 | – | 1.5084 | –
[2], 318.15 K, w2 = 0.00898 | – | 1.5079 | –
[2], 318.15 K, w2 = 0.0105 | – | 1.5075 | –
[2], 318.15 K, w2 = 0.01211 | – | 1.5071 | –
[2], 323.15 K, w2 = 0.00594 | – | 1.5078 | –
[2], 323.15 K, w2 = 0.00746 | – | 1.5073 | –
[2], 323.15 K, w2 = 0.00898 | – | 1.5068 | –
[2], 323.15 K, w2 = 0.0105 | – | 1.5064 | –
[2], 323.15 K, w2 = 0.01211 | – | 1.5059 | –
[2], 328.15 K, w2 = 0.00594 | – | 1.5071 | –
[2], 328.15 K, w2 = 0.00746 | – | 1.5065 | –
[2], 328.15 K, w2 = 0.00898 | – | 1.5059 | –
[2], 328.15 K, w2 = 0.0105 | – | 1.5055 | –
[2], 328.15 K, w2 = 0.01211 | – | 1.5049 | –
[2], 333.15 K, w2 = 0.00594 | – | 1.5059 | –
[2], 333.15 K, w2 = 0.00746 | – | 1.5055 | –
[2], 333.15 K, w2 = 0.00898 | – | 1.5049 | –
[2], 333.15 K, w2 = 0.0105 | – | 1.5045 | –
[2], 333.15 K, w2 = 0.01211 | – | 1.5041 | –
[2], 338.15 K, w2 = 0.00594 | – | 1.5051 | –
[2], 338.15 K, w2 = 0.00746 | – | 1.5045 | –
[2], 338.15 K, w2 = 0.00898 | – | 1.5041 | –
[2], 338.15 K, w2 = 0.0105 | – | 1.5036 | –
[2], 338.15 K, w2 = 0.01211 | – | 1.5032 | –
